Structures are written as SMILES. Counter-ions that a name gives are not always drawn.

Holding throughout (format): biochemical
One assay deals with T1, recombinant human VAP-1 (Homo sapiens, UniProt Q16853).
T1 construct: purchased R&D systems
T1 sequence (Q16853 1-763): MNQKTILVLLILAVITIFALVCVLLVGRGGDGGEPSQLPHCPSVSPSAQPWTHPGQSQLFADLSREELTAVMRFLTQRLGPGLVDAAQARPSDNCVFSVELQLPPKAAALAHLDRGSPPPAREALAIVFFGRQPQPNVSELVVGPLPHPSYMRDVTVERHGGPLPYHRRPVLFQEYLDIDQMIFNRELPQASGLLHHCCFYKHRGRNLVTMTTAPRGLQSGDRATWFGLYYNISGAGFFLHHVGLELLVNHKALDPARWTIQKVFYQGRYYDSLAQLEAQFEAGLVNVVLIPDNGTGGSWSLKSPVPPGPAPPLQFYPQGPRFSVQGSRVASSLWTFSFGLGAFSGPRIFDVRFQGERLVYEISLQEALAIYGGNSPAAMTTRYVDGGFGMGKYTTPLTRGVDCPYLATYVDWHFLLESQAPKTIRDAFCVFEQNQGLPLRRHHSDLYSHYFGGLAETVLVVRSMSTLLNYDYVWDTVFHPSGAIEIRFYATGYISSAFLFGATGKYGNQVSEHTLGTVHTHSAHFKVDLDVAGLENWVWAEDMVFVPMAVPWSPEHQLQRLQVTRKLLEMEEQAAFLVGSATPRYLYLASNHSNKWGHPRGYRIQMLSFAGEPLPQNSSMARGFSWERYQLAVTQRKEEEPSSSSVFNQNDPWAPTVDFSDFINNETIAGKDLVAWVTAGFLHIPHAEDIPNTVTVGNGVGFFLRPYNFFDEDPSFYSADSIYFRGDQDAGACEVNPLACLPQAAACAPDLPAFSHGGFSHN
As to the kind of experiment: Activity on recombinant human VAP-1, HRP-coupled Amplex Red hydrogen peroxide assay, benzylamine substrate. As to conditions: 30 min incubation at 37° C., 1 mM benzylamine, read-out: Inhibitory Activity (IC50, nM) human VAP-1. A digest of the protocol:
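Recombinant human VAP-1 in 50 mM sodium phosphate pH 7.4 preincubated with compound for 30 min at 37 °C, then 1 mM benzylamine, 200 uM Amplex Red and 1 U/mL HRP added. Resorufin fluorescence (ex 544/em 590 nm) followed over 1-2 h; % signal-rate decrease vs DMSO control, 8-point 4-parameter fit for IC50.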

Assay [1] concerns the target T2, recombinant human MAO-A (monoamine oxidase-A) (Homo sapiens, UniProt P21397).
T2 construct: purchased Sigma-Aldrich
T2 sequence (P21397 1-527): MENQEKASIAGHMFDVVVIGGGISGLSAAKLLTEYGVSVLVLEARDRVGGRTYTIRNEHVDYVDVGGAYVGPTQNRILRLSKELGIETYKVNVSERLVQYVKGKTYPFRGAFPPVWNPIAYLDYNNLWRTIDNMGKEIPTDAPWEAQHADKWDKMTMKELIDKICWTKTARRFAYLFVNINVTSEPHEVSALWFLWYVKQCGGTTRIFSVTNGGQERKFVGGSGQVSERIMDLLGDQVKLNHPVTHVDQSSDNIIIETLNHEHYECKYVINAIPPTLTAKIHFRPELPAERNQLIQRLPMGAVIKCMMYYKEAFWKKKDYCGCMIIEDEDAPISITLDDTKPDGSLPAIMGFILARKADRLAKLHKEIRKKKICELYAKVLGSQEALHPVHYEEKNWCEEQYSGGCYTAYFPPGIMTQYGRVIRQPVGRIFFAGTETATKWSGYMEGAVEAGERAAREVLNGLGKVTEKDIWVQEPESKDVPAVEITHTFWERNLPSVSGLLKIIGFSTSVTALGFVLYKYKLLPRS
The assay is described as follows: Activity on recombinant human MAO-A, method similar to VAP-1 assay, 0.5 mM tyramine substrate. Particulars: read-out: Inhibitory Activity (IC50, nM) MAO-A. A digest of the protocol: (§1)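 Amplex Red/HRP-coupled H2O2 fluorescence assay run as for VAP-1: enzyme in 50 mM sodium phosphate pH 7.4 preincubated with compound 30 min at 37 °C, then substrate (putrescine for DAO, benzylamine for MAO-B, tyramine for MAO-A) added with 200 uM Amplex Red, 1 U/mL HRP. Signal rate over 1-2 h; IC50 from 4-parameter logistic fit.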

Assay [2] deals with T3, recombinant human MAO-B (monoamine oxidase-B) (Homo sapiens, UniProt P27338).
T3 construct: purchased Sigma-Aldrich
T3 sequence (P27338 1-520): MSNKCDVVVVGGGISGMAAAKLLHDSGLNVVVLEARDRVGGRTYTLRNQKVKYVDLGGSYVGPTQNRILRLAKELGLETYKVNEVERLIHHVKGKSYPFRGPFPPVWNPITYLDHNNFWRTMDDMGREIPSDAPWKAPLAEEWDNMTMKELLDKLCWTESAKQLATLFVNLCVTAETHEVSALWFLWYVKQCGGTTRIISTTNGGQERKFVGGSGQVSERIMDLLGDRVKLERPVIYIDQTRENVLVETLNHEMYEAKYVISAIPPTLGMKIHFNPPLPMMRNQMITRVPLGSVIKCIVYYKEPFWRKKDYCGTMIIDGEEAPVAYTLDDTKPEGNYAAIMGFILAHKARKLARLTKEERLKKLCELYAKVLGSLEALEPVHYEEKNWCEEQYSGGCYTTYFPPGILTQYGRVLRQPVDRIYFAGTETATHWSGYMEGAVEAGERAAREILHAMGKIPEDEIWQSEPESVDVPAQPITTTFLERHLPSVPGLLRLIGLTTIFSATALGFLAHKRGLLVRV
The assay is described as follows: Activity on recombinant human MAO-B, method similar to VAP-1 assay, 1 mM benzylamine substrate. Particulars: read-out: Inhibitory Activity (IC50, nM) MAO-B. A digest of the protocol: as §1

For assay [3], the target named is T4, recombinant human DAO (diamine oxidase) (Homo sapiens, UniProt P19801).
T4 construct: purchased R&D systems
T4 sequence (P19801 20-751): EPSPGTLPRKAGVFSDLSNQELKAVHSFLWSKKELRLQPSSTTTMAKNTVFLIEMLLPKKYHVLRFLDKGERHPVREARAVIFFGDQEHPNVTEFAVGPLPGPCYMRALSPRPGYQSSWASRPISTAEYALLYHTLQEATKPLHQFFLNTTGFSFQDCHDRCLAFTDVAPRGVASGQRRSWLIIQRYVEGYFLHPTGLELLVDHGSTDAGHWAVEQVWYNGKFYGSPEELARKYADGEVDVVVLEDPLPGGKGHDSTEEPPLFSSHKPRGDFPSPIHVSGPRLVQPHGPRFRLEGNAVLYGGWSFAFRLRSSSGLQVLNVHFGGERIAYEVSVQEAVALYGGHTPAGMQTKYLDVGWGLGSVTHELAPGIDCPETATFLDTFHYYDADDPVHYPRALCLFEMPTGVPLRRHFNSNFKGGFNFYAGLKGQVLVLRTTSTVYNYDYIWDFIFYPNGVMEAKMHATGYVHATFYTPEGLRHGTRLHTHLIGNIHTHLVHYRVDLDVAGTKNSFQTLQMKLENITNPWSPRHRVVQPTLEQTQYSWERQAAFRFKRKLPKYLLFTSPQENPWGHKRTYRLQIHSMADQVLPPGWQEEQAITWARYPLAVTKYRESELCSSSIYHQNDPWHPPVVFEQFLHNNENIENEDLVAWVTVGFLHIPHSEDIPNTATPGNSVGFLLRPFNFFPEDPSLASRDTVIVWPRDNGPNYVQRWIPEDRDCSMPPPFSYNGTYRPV
The assay is described as follows: Activity on recombinant human DAO, method similar to VAP-1 assay, 1 mM putrescine substrate. As to conditions: read-out: Inhibitory Activity (IC50, nM) DAO. In a few lines:
as §1

As usually defined, the IC50 is the point on the concentration scale where inhibition reaches its midpoint. Take `CC(=O)Nc1ccc(-c2ccc3nn(C/C(=C/F)CN)c(=O)n3c2)cc1` [Example 2, N-[4-[2-[(2E)-2-(aminomethyl)-3-fluoroprop-2-en-1-yl]-3-oxo-2,3-dihydro[1,2,4]triazolo[4,3-a]pyridin-6-yl]phenyl]acetamide trifluoroacetate]: the IC50 on recombinant human VAP-1 was 6.2 nM; in assay [1], 68400 nM; in assay [2] it was 1780 nM; in assay [3], less than 100 nM.
For `NCC(Cn1nc2cc(Br)ccn2c1=O)=C(F)F` [Example 47, 2-[2-(aminomethyl)-3,3-difluoro-allyl]-7-bromo-[1,2,4]triazolo[4,3-a]pyridin-3-one trifluoroacetate], in that order: 7 nM, more than 100000 nM, more than 100000 nM and 42000 nM.
For `NC/C(=C\F)Cn1nc2cc(-c3ccc(C(F)(F)F)nc3)ccn2c1=O` [Example 30, 2-[(2E)-2-(aminomethyl)-3-fluoroprop-2-en-1-yl]-7-[6-(trifluoromethyl)pyridin-3-yl][1,2,4]triazolo[4,3-a]pyridin-3(2H)-one hydrochloride], in that order: 0.3 nM, 68000 nM, 8.4 nM and 1.1 nM.
As for `Cn1cc(C#Cc2ccn3c(=O)n(CC(CN)=C(F)F)nc3c2)cn1` [Example 56, 2-[2-(aminomethyl)-3,3-difluoro-allyl]-7-[2-(1-methylpyrazol-4-yl)ethynyl]-[1,2,4]triazolo[4,3-a]pyridin-3-one trifluoroacetate], the IC50 on recombinant human VAP-1 was 1 nM; in assay [1] it was more than 100000 nM; in assay [2] it was 2500 nM; in assay [3], 6300 nM.
`NC/C(=C\F)Cn1nc2ccc(-c3ccc4sc(N)nc4c3)cn2c1=O` [Example 14, 6-(2-amino-1,3-benzothiazol-5-yl)-2-[(2E)-2-(aminomethyl)-3-fluoroprop-2-en-1-yl][1,2,4]triazolo[4,3-a]pyridin-3(2H)-one trifluoroacetate]: the IC50 is 6.2 nM on recombinant human VAP-1, more than 100000 nM in assay [1], 69 nM in assay [2] and less than 100 nM in assay [3].
Turning to `NC/C(=C\F)Cn1nc2cc(-c3ccc4c(c3)NC(=O)CO4)ccn2c1=O` [Example 42, 6-[2-[(2E)-2-(aminomethyl)-3-fluoroprop-2-en-1-yl]-3-oxo-2,3-dihydro[1,2,4]triazolo[4,3-a]pyridin-7-yl]-2H-1,4-benzoxazine-3 (4H)-one hydrochloride], the concentration for half-maximal inhibition (IC50) at recombinant human VAP-1 amounted to 0.3 nM; in assay [1], 5400 nM; in assay [2] it was 1400 nM; in assay [3] it was 1 nM.
For the compound `NCC(Cn1nc2cc(-c3ccc(C(F)(F)F)nc3)ccn2c1=O)=C(F)F` [Example 50, 2-[2-(aminomethyl)-3,3-difluoro-allyl]-7-[6-(trifluoromethyl)-3-pyridyl]-[1,2,4]triazolo[4,3-a]pyridin-3-one trifluoroacetate], the IC50 on recombinant human VAP-1 was 0.2 nM; in assay [1], more than 100000 nM; in assay [2], 100 nM; in assay [3] it was 3 nM.
With `NC/C(=C\F)Cn1nc2cc(C3=CCNCC3)ccn2c1=O` [Example 34, 2-[(2E)-2-(aminomethyl)-3-fluoroprop-2-en-1-yl]-7-(1,2,3,6-tetrahydropyridin-4-yl)[1,2,4]triazolo[4,3-a]pyridin-3(2H)-one dihydrochloride], the IC50 at recombinant human VAP-1 was 2 nM; in assay [1], more than 100000 nM; in assay [2] it was more than 100000 nM; in assay [3], 1 nM.
`CN1CCOc2cc(C#Cc3ccn4c(=O)n(CC(CN)=C(F)F)nc4c3)ccc21` [Example 63, 2-[2-(aminomethyl)-3,3-difluoro-allyl]-7-[2-(4-methyl-2,3-dihydro-1,4-benzoxazin-7-yl)ethynyl]-[1,2,4]triazolo[4,3-a]pyridin-3-one trifluoroacetate]: the IC50 at recombinant human VAP-1 was 2.2 nM; in assay [1], more than 100000 nM; in assay [2], more than 100000 nM; in assay [3], 320 nM.
For the compound `NC/C(=C\F)Cn1nc2ccc(-c3cccc(-c4nc[nH]n4)c3)cn2c1=O` [Example 6, 2-[(2E)-2-(aminomethyl)-3-fluoroprop-2-en-1-yl]-6-[3-(1H-1,2,4-triazol-3-yl)phenyl][1,2,4]triazolo[4,3-a]pyridin-3(2H)-one], the IC50 was 2.1 nM at recombinant human VAP-1, more than 100000 nM in assay [1], 73 nM in assay [2] and less than 100 nM in assay [3].
Take `NC/C(=C\F)Cn1nc2cc(-c3c[nH]c4ncccc34)ccn2c1=O` [Example 35, 2-[(2E)-2-(aminomethyl)-3-fluoroprop-2-en-1-yl]-7-(1H-pyrrolo[2,3-b]pyridin-3-yl)[1,2,4]triazolo[4,3-a]pyridin-3(2H)-one hydrochloride]: the IC50 on recombinant human VAP-1 is 0.2 nM; in assay [1], more than 100000 nM; in assay [2], 24 nM; in assay [3] it was 0.5 nM.
In the case of `Cc1cc(-c2ccn3c(=O)n(CC(CN)=C(F)F)nc3c2)cc2c1NC(=O)CC2` [Example 53, 6-[2-[2-(aminomethyl)-3,3-difluoro-allyl]-3-oxo-[1,2,4]triazolo[4,3-a]pyridin-7-yl]-8-methyl-3,4-dihydro-1H-quinolin-2-one trifluoroacetate], the concentration for half-maximal inhibition (IC50) at recombinant human VAP-1 was 0.2 nM; in assay [1], more than 100000 nM; in assay [2] it was 320 nM; in assay [3], 12 nM.

The values are drawn from patent US11091479B2, “Triazolopyridin-3-ones or their salts and pharmaceutical compositions comprising the same” (YUHAN CORPORATION, priority 2018, dated 2021).
